Tests used:
BRD4 BD1 = target: T1, BRD4 BD1 (Homo sapiens, UniProt O60885, Y390A); experiment: BRD4 BD1 TR-FRET competition assay; type: binding; settings: mean of n determinations; read-out: mean pIC50 in the BRD4 BD1 TR-FRET assay (converted)
T1 construct: BRD4 (1-477) (Y97A) and (Y390A); made in house; host or cells: E. coli (pET15b vector)

BRD4 BD2 = target: T2, BRD4 BD2 (Homo sapiens, UniProt O60885, Y97A); experiment: BRD4 BD2 TR-FRET competition assay; type: binding; settings: for fold selective for BRD4 BD2 over BRD4 BD1: derived from the log unit selectivity; for selectivity for BRD4 BD2 over BRD4 BD1 (BRD4 BD2 pIC50 - BRD4 BD1 pIC50): in at least one of the TR-FRET assays; for IC50: mean of n determinations, read-out: mean pIC50 in the BRD4 BD2 TR-FRET assay (converted)
T2 construct: BRD4 (1-477) (Y97A) and (Y390A); made in house; host or cells: E. coli (pET15b vector)

[1] = tested on: BET family (BRD2, BRD3, BRD4 and BRDT) mutant tandem bromodomain proteins; experiment: Fluorescence Polarisation binding of Reference Compound X to single and double mutant tandem BET proteins; parameters: species or system Human
Method: The competition of the compounds of formula (I) with Reference Compound X for binding to the BET family (BRD2, BRD3, BRD4 and BRDT) was assessed using protein truncates spanning both bromodomain 1 (BD1) and bromodomain 2 (BD2). In order to monitor differential binding to either BD1 or BD2, single residue mutations of key tyrosines to alanine were made in the acetyl lysine binding pockets. To validate this approach, a double residue mutant tandem domain protein was produced for each of the BET family members. Utilising a Fluorescence Polarisation approach, binding affinities for each of the single and double mutants for Reference Compound X were determined. […] The affinities of the single mutated bromdomain tandem proteins for Reference Compound X were equi-potent with the corresponding non-mutated BET protein. […] In the TR-FRET competition assay, Reference Compound X is used at a concentration that is equivalent to the Kd for the non-mutated bromodomain, which ensures that no binding at the mutated bromodomain is detected. […]

Row | Structure (SMILES) | IC50 (BRD4 BD1) | fold selective for BRD4 BD2 over BRD4 BD1 (BRD4 BD2) | selectivity for BRD4 BD2 over BRD4 BD1 (BRD4 BD2 pIC50 - BRD4 BD1 pIC50) (BRD4 BD2) | IC50 (BRD4 BD2) | fold reduction in Kd (affinity) of double mutant tandem proteins for Reference Compound X ([1]; double residue mutant versus non mutated, wild type tandem BET proteins) | fold change of Kd of the interaction between the mutated bromodomain and Reference Compound X ([1]; single mutations of Tyrosine to Alanine)
1 | CNC(=O)c1cc(C(=O)N[C@H]2C[C@@H]2C)cn(Cc2cccc(OCCO)c2)c1=O [Example 153, 1-(3-(2-Hydroxyethoxy)benzyl)-N3-methyl-N5-((1S,2S)-2-methylcyclopropyl)-2-oxo-1,2-dihydropyridine-3,5-dicarboxamide] | 31.6 µM | at least 100 fold | 2.7 log unit | 0.0631 µM |  | 
2 | CNC(=O)c1cc(C(=O)N[C@H]2C[C@@H]2C)cn(Cc2ccccc2)c1=O (single isomer, unassigned) [Example 102] | 7.94 µM | at least 100 fold | 2.5 log unit | 0.0251 µM |  | 
3 | COc1ccc2c(c1)C(c1ccc(Cl)cc1)=N[C@@H](CC(=O)NCCCCCNC(=O)CCCCCC1(C)/C(=C/C=C/C=C/C3=[N+](CCCCS(=O)(=O)O)c4ccc(S(=O)(=O)O)cc4C3(C)C)N(CCCCS(=O)(=O)[O-])c3ccc(S(=O)(=O)O)cc31)c1nnc(C)n1-2 (stereo partly shown) [Reference Compound X] |  |  |  |  | > 1000 fold | > 1000 fold
